Source: patent US20240208992A1, “MACROCYCLES AS CFTR MODULATORS” (Idorsia Pharmaceuticals Ltd, priority 2021, published 2024)

Target: human F508del-CFTR (Homo sapiens, UniProt P13569, DEL508-508)
Test: F508del-CFTR cell surface expression (corrector activity), DiscoveRx ß-galactosidase complementation chemiluminescence assay in recombinant U2OS cell line;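 also: U2OS cells co-expressing ProLink-tagged F508del-CFTR and a membrane-anchored enzyme acceptor, where more surface CFTR restores β-galactosidase activity measured by chemiluminescence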
Details: U2OS cell line, 16h compound incubation; for EC50: EC50, F508del-CFTR cell surface expression, geomean values; for Emax: U2OS, in relation to the Emax of the corrector lumacaftor (=100%), arithmetic mean values

Sequence of human F508del-CFTR (P13569 with tags, fused parts or gaps DEL508-508): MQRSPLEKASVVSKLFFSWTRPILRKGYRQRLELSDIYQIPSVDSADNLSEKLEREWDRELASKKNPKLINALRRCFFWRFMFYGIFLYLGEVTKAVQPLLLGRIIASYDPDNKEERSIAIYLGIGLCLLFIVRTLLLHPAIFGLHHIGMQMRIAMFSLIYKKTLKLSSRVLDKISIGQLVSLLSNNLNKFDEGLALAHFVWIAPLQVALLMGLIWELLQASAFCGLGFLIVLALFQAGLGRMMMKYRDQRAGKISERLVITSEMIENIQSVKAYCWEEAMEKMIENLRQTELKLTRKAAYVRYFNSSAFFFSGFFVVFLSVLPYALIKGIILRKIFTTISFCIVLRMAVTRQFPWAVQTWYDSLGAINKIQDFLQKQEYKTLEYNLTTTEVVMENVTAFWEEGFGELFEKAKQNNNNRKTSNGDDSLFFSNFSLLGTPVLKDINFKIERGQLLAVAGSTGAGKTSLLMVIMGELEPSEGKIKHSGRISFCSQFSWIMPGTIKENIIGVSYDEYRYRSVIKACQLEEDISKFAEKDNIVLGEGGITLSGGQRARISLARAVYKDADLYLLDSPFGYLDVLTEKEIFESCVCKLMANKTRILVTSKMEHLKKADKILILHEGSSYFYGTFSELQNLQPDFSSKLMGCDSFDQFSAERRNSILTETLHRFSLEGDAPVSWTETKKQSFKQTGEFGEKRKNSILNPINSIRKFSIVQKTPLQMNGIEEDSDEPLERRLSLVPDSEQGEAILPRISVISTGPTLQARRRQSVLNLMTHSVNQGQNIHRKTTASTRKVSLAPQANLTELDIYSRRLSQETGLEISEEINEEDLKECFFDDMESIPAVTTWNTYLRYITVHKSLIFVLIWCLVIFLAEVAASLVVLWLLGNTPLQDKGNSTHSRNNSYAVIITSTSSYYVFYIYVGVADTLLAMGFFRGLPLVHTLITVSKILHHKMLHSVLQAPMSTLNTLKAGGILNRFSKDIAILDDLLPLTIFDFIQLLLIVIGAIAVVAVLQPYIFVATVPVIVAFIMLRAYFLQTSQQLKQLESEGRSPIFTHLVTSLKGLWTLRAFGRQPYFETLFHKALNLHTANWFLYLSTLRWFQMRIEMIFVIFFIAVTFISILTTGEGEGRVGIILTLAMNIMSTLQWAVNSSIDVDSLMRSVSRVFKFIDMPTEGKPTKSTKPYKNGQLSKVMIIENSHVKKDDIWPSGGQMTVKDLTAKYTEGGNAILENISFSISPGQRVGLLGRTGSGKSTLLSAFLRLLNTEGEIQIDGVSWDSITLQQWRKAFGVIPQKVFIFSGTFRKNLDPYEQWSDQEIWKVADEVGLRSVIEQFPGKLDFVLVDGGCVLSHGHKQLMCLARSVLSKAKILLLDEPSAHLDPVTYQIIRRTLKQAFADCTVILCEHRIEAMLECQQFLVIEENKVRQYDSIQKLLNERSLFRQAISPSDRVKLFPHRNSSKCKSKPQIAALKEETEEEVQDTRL

SMILES | EC50 [nM] | Emax [%]
CC(C)C[C@H]1C(=O)N(CCC2CCOCC2)CC(=O)N[C@H](Cc2ccccc2)COc2cc3c(cc2C(=O)N[C@H](C(=O)NCCc2ccc4c(c2)OCO4)CC(=O)N1C)OCO3 [Example 154, (7R,13S,17S)-N-(2-(benzo[d][1,3]dioxol-5-yl)ethyl)-7-benzyl-13-isobutyl-14-methyl-9,12,15,19-tetraoxo-11-(2-(tetrahydro-2H-pyran-4-yl)ethyl)-6,7,8,9,10,11,12,13,14,15,16,17,18,19-tetradecahydro-[1,3]dioxolo[4′,5′:4,5]benzo[1,2-p][1]oxa[4,7,10,14]tetraazacycloheptadecine-17-carboxamide] | 398 | 102
COc1cc(CCNC(=O)[C@@H]2CC(=O)N(C)[C@@H](CC(C)C)C(=O)N(CCC3CCCCC3)CC(=O)N[C@H](Cc3ccccc3)COc3cccc(OC)c3C(=O)N2)ccn1 [Example 158, (3R,9S,13S)-3-benzyl-7-(2-cyclohexylethyl)-9-isobutyl-16-methoxy-N-(2-(2-methoxypyridin-4-yl)ethyl)-10-methyl-5,8,11,15-tetraoxo-2,3,4,5,6,7,8,9,10,11,12,13,14,15-tetradecahydrobenzo[p][1]oxa[4,7,10,14]tetraazacycloheptadecine-13-carboxamide] | 315 | 169
COc1cc2c(cc1OC)C(=O)N[C@H](C(=O)NCCc1ccc3c(c1)OCO3)CC(=O)N(C)[C@@H](CC(C)C)C(=O)N(C[C@H]1CCCCO1)CC(=O)N[C@H](Cc1ccccc1)CO2 [Example 159, (3R,9S,13S)-N-(2-(benzo[d][1,3]dioxol-5-yl)ethyl)-3-benzyl-9-isobutyl-17,18-dimethoxy-10-methyl-5,8,11,15-tetraoxo-7-(((R)-tetrahydro-2H-pyran-2-yl)methyl)-2,3,4,5,6,7,8,9,10,11,12,13,14,15-tetradecahydrobenzo[p][1]oxa[4,7,10,14]tetraazacycloheptadecine-13-carboxamide] | 385 | 100
COc1cc2c(cc1OC)C(=O)N[C@H](C(=O)NCCc1ccc3c(c1)OCO3)CC(=O)N(C)[C@@H](CC(C)C)C(=O)N(C[C@@H]1CCCCO1)CC(=O)N[C@H](Cc1ccccc1)CO2 [Example 160, (3R,9S,13S)-N-(2-(benzo[d][1,3]dioxol-5-yl)ethyl)-3-benzyl-9-isobutyl-17,18-dimethoxy-10-methyl-5,8,11,15-tetraoxo-7-(((S)-tetrahydro-2H-pyran-2-yl)methyl)-2,3,4,5,6,7,8,9,10,11,12,13,14,15-tetradecahydrobenzo[p][1]oxa[4,7,10,14]tetraazacycloheptadecine-13-carboxamide] | 224 | 116
COc1cc2c(cc1OC)C(=O)N[C@H](C(=O)NCCc1ccc3c(c1)OCCCC3)CC(=O)N(C)[C@@H](CC(C)C)C(=O)N(C)CC(=O)N[C@H](Cc1ccccc1)CO2 [Example 161, (3R,9S,13S)-3-benzyl-9-isobutyl-17,18-dimethoxy-7,10-dimethyl-5,8,11,15-tetraoxo-N-(2-(2,3,4,5-tetrahydrobenzo[b]oxepin-8-yl)ethyl)-2,3,4,5,6,7,8,9,10,11,12,13,14,15-tetradecahydrobenzo[p][1]oxa[4,7,10,14]tetraazacycloheptadecine-13-carboxamide] | 250 | 137
COc1ccc(C2(CNC(=O)[C@@H]3CC(=O)N(C)[C@@H](CC(C)C)C(=O)N(C)C4(CC4)C(=O)N[C@H](Cc4ccccc4)COc4cnc5ccc(F)cc5c4C(=O)N3)CC2)cc1OC [Example 166, (3′S,7′S,13′R)-13′-benzyl-N-((1-(3,4-dimethoxyphenyl)cyclopropyl)methyl)-20′-fluoro-7′-isobutyl-6′,9′-dimethyl-1′,5′,8′,11′-tetraoxo-2′,3′,4′,5′,6′,7′,8′,9′,11′,12′,13′,14′-dodecahydro-1′H-spiro[cyclopropane-1,10′-[1]oxa[4,7,10,14]tetraazacycloheptadecino[17,16-c]quinoline]-3′-carboxamide] | 624 | 111
CC(C)C[C@H]1C(=O)N(C)C2(CC2)C(=O)N[C@H](Cc2ccccc2)COc2cnc3ccc(F)cc3c2C(=O)N[C@H](C(=O)NCCc2cccc(S(C)(=O)=O)c2)CC(=O)N1C [Example 167, (3′S,7′S,13′R)-13′-benzyl-20′-fluoro-7′-isobutyl-6′,9′-dimethyl-N-(3-(methylsulfonyl)phenethyl)-1′,5′,8′,11′-tetraoxo-2′,3′,4′,5′,6′,7′,8′,9′,11′,12′,13′,14′-dodecahydro-1′H-spiro[cyclopropane-1,10′-[1]oxa[4,7,10,14]tetraazacycloheptadecino[17,16-c]quinoline]-3′-carboxamide] | 822 | 238
CC(C)C[C@H]1C(=O)N(C)C2(CC2)C(=O)N[C@H](Cc2ccccc2)COc2cnc3ccc(F)cc3c2C(=O)N[C@H](C(=O)NCCc2cccc(C#N)c2)CC(=O)N1C [Example 168, (3′S,7′S,13′R)-13′-benzyl-N-(3-cyanophenethyl)-20′-fluoro-7′-isobutyl-6′,9′-dimethyl-1′,5′,8′,11′-tetraoxo-2′,3′,4′,5′,6′,7′,8′,9′,11′,12′,13′,14′-dodecahydro-1′H-spiro[cyclopropane-1,10′-[1]oxa[4,7,10,14]tetraazacycloheptadecino[17,16-c]quinoline]-3′-carboxamide] | 338 | 193
CC(C)C[C@H]1C(=O)N(C)C2(CC2)C(=O)N[C@H](Cc2ccccc2)COc2cnc3ccc(F)cc3c2C(=O)N[C@H](C(=O)NCCc2cccc(C(F)(F)F)c2)CC(=O)N1C [Example 169, (3′S,7′S,13′R)-13′-benzyl-20′-fluoro-7′-isobutyl-6′,9′-dimethyl-1′,5′,8′,11′-tetraoxo-N-(3-(trifluoromethyl)phenethyl)-2′,3′,4′,5′,6′,7′,8′,9′,11′,12′,13′,14′-dodecahydro-1′H-spiro[cyclopropane-1,10′-[1]oxa[4,7,10,14]tetraazacycloheptadecino[17,16-c]quinoline]-3′-carboxamide] | 334 | 170
CC(C)C[C@H]1C(=O)N(C)C2(CC2)C(=O)N[C@H](Cc2ccccc2)COc2cnc3ccc(F)cc3c2C(=O)N[C@H](C(=O)NCCc2ccc(N3CCOCC3)cc2)CC(=O)N1C [Example 170, (3′S,7′S,13′R)-13′-benzyl-20′-fluoro-7′-isobutyl-6′,9′-dimethyl-N-(4-morpholinophenethyl)-1′,5′,8′,11′-tetraoxo-2′,3′,4′,5′,6′,7′,8′,9′,11′,12′,13′,14′-dodecahydro-1′H-spiro[cyclopropane-1,10′-[1]oxa[4,7,10,14]tetraazacycloheptadecino[17,16-c]quinoline]-3′-carboxamide] | 329 | 267
CC(C)C[C@H]1C(=O)N2CCCC[C@@H]2C(=O)N[C@H](Cc2ccccc2)COc2cnc3ccc(F)cc3c2C(=O)N[C@H](C(=O)NCCc2noc(C(C)C)n2)CC(=O)N1C [Example 171, (9S,13S,19aR,22R)-22-benzyl-5-fluoro-13-isobutyl-N-(2-(5-isopropyl-1,2,4-oxadiazol-3-yl)ethyl)-12-methyl-7,11,14,20-tetraoxo-7,8,9,10,11,12,13,14,17,18,19,19a,20,21,22,23-hexadecahydro-16H-pyrido[2′,1′:6,7][1]oxa[4,7,10,14]tetraazacycloheptadecino[17,16-c]quinoline-9-carboxamide] | 144 | 301
CC(C)C[C@H]1C(=O)N(C)C2(CC2)C(=O)N[C@H](Cc2ccccc2)COc2cnc3ccc(F)cc3c2C(=O)N[C@H](C(=O)NCCn2cc(C3CC3)cn2)CC(=O)N1C [Example 172, (3′S,7′S,13′R)-13′-benzyl-N-(2-(4-cyclopropyl-1H-pyrazol-1-yl)ethyl)-20′-fluoro-7′-isobutyl-6′,9′-dimethyl-1′,5′,8′,11′-tetraoxo-2′,3′,4′,5′,6′,7′,8′,9′,11′,12′,13′,14′-dodecahydro-1′H-spiro[cyclopropane-1,10′-[1]oxa[4,7,10,14]tetraazacycloheptadecino[17,16-c]quinoline]-3′-carboxamide] | 324 | 213
CC(C)C[C@H]1C(=O)N(C)C2(CC2)C(=O)N[C@H](Cc2ccccc2)COc2cnc3ccc(F)cc3c2C(=O)N[C@H](C(=O)NCCn2cc(Br)cn2)CC(=O)N1C [Example 173, (3′S,7′S,13′R)-13′-benzyl-N-(2-(4-bromo-1H-pyrazol-1-yl)ethyl)-20′-fluoro-7′-isobutyl-6′,9′-dimethyl-1′,5′,8′,11′-tetraoxo-2′,3′,4′,5′,6′,7′,8′,9′,11′,12′,13′,14′-dodecahydro-1′H-spiro[cyclopropane-1,10′-[1]oxa[4,7,10,14]tetraazacycloheptadecino[17,16-c]quinoline]-3′-carboxamide] | 455 | 212
COCCCc1cnn(CCNC(=O)[C@@H]2CC(=O)N(C)[C@@H](CC(C)C)C(=O)N(C)C3(CC3)C(=O)N[C@H](Cc3ccccc3)COc3cnc4ccc(F)cc4c3C(=O)N2)c1 [Example 174, (3′S,7′S,13′R)-13′-benzyl-20′-fluoro-7′-isobutyl-N-(2-(4-(3-methoxypropyl)-1H-pyrazol-1-yl)ethyl)-6′,9′-dimethyl-1′,5′,8′,11′-tetraoxo-2′,3′,4′,5′,6′,7′,8′,9′,11′,12′,13′,14′-dodecahydro-1′H-spiro[cyclopropane-1,10′-[1]oxa[4,7,10,14]tetraazacycloheptadecino[17,16-c]quinoline]-3′-carboxamide] | 954 | 194
COc1cccc(C(F)(F)CNC(=O)[C@@H]2CC(=O)N(C)[C@@H](CC(C)C)C(=O)N(C)C3(CC3)C(=O)N[C@H](Cc3ccccc3)COc3cnc4ccccc4c3C(=O)N2)c1 [Example 175, (3′S,7′S,13′R)-13′-benzyl-N-(2,2-difluoro-2-(3-methoxyphenyl)ethyl)-7′-isobutyl-6′,9′-dimethyl-1′,5′,8′,11′-tetraoxo-2′,3′,4′,5′,6′,7′,8′,9′,11′,12′,13′,14′-dodecahydro-1′H-spiro[cyclopropane-1,10′-[1]oxa[4,7,10,14]tetraazacycloheptadecino[17,16-c]quinoline]-3′-carboxamide] | 229 | 179
